Results reported in patent US20070128731A1, “Methods for preparing crystalline rapamycin and for measuring crystallinity of rapamycin compounds using differential scanning calorimetry” (Wyeth, priority 2005, published 2007).

Test: Storage stability of crystalline rapamycin followed by DSC
Format: physicochemical
Method: In one example, the crystallinity is maintained over a period of about 2 months. In another example, the crystallinity is maintained over a period of about 4 months. In a further example, the crystallinity is maintained up to about 60% relative humidity.
In this example, samples containing rapamycin (Table 3) were analyzed by DSC and optical microscopy. The morphology and approximate particle size were determined using optical microscopy. A standard DSC sample ramp rate of 10° C./min and a hermetically sealed aluminum pan were utilized.
Sample 2 contained crystalline rapamycin and about 2 to about 3% of oxidative/hydrolysis degradation impurities and was prepared using the process of Example 3. A portion of the batch was maintained at 25° C. and 60% relative humidity for 2 months.
Sample 3 contains crystalline rapamycin and about 2 to about 3% of oxidative/hydrolysis degradation impurities and was prepared using the process of example 3. A portion of the batch was subjected to 25° C. and 60% relative humidity for 4 months.

SMILES: CO[C@H]1C[C@@H]2CC[C@@H](C)[C@@](O)(O2)C(=O)C(=O)N2CCCC[C@H]2C(=O)O[C@H]([C@H](C)C[C@@H]2CC[C@@H](O)[C@H](OC)C2)CC(=O)[C@H](C)/C=C(\C)[C@@H](O)[C@@H](OC)C(=O)[C@H](C)C[C@H](C)/C=C/C=C/C=C/1C [rapamycin]
- effect of low levels of impurities on DSC melting temperature over time (about 2 to about 3% oxidative/hydrolysis degradation impurities, 25° C. and 60% relative humidity, 2 and 4 months): do not affect
- crystallinity on storage (period up to 4 months at up to about 60% relative humidity): substantially maintained
- change in the DSC melting endotherm on storage (stored for up to 4 months at up to about 60% relative humidity): minimal change
